{"source": "patent US20230111568A1", "about": "“SOLID DISPERSIONS OF RIFAXIMIN FOR THE TREATMENT OF OVERT HEPATIC ENCEPHALOPATHY” (Bausch Health Ireland Limited, priority 2020, published 2023)", "origin": "cited, not measured here", "test_system": "complications of cirrhosis"}
{"compound": "CO[C@H]1/C=C/O[C@@]2(C)Oc3c(C)c(O)c4c(O)c(c5c(nc6cc(C)ccn65)c4c3C2=O)NC(=O)/C(C)=C\\C=C\\[C@H](C)[C@H](O)[C@@H](C)[C@@H](O)[C@@H](C)[C@H](OC(C)=O)[C@@H]1C", "note": "[rifaximin]", "values": [{"measurement": "HE recurrences, hospitalizations, adverse events, survival", "setting": "literature (Conf. Proc. IEEE Eng. Med. Biol. Soc. 2013)", "value": "protect from HE recurrences with decreased HE-related and all-cause hospitalizations without an increased rate of adverse events (AEs) or decreased survival"}, {"measurement": "overall rates of infection, antibiotic use and other complications of cirrhosis", "setting": "literature (Conf. Proc. IEEE Eng. Med. Biol. Soc.)", "value": "reduces or maintains the overall rates of infection, antibiotic use, and other complications of cirrhosis such as ascites"}, {"measurement": "survival and risk of variceal bleeding, HE, SBP or HRS", "setting": "literature (Journal of Gastroenterology and Hepatology 28(3))", "value": "independently associated with higher survival and lower risk of developing variceal bleeding, HE, SBP, or HRS"}]}
